For assay [1], the target named is T1, D1 (Homo sapiens, UniProt P21728). The assay can be described thus: D1 cAMP HTRF assay (HEK293T/hD1#1 stable cell line). More on the design: expressed in transfected cells. The assay is classed as cell-based. The essentials: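 Cells from a stable human D1 HEK293T line in PBS/0.5 μM IBMX were incubated with compound for 30 min at room temperature, and cAMP was then detected by competitive HTRF (1 h, room temperature). A cAMP standard curve converted ratios to cAMP, giving ratio-based and cAMP-based EC50 values.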
T1 sequence (P21728 whole entry): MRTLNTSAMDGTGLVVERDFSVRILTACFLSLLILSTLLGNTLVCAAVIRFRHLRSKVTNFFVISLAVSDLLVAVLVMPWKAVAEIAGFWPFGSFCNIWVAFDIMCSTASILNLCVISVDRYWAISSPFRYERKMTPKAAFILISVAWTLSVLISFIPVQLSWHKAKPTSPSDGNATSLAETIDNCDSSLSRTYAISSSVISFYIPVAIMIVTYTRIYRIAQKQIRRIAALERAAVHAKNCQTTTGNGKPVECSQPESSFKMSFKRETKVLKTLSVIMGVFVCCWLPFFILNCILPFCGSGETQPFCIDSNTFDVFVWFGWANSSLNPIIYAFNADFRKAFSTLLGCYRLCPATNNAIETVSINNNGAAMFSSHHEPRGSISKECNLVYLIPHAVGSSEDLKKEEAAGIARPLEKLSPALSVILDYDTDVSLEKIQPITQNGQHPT
On the technique in general: Time-resolved FRET reads energy transfer from a long-lived donor to a nearby acceptor.

Assay [2] concerns the target T1, D1. Nature of the assay: Human D1 receptor binding assay ([3H]-SCH23390 competition). Particulars: Human D1 Receptor Binding, Ki (nM), Geometric mean of 2-4 determinations, a: >=5 determinations, d: single determination.
Description: D1 binding assays were performed using over-expressing LTK human cell lines. […] These ligand and tissue concentrations were used in time course studies to determine linearity and equilibrium conditions for binding. Binding was at equilibrium with the specified amount of tissue in 30 minutes at 37° C. […] The pellet was resuspended in assay buffer (50 mM Tris (pH 7.4@ RT) containing 4 mM MgSO4 and 0.5 mM EDTA). […] After a 30 minute incubation period at 37° C., assay samples were rapidly filtered through Unifilter-96 GF/B PEI-coated filter plates and rinsed with 50 mM Tris buffer (pH 7.4 at 4° C.). […] Ki values were calculated according to the Cheng-Prusoff equation.

Where “and” joins values, the source holds several entries; their conditions need not be identical. Equal values may be shown once. Where a name gives a salt, the structure may show the parent alone.

A word on the EC50: it is the concentration that produces a half-maximal response. As a reminder, the Ki is a measure of affinity in units of concentration, obtained from inhibition or displacement. A lower Ki goes with higher affinity. As for `Cc1cc(Sc2nccc3occc23)ccc1-c1c(C)ncnc1C` [Example 155, 4-{[4-(4,6-dimethylpyrimidin-5-yl)-3-methylphenyl]sulfanyl}furo[3,2-c]pyridine], the EC50 on D1 [1] worked out at 1010 nM. This compound also showed a Ki on D1 [2] of 138 nM.
`Cc1cnnc(C)c1-c1ccc(Oc2nccc3occc23)cc1F` [Example 140, 4-[4-(3,5-dimethylpyridazin-4-yl)-3-fluorophenoxy]furo[3,2-c]pyridine]: on D1 [1], the midpoint of the response, the EC50, lay at 292 nM. The affinity at D1 [2] corresponds to a Ki of 48 nM.
On to `Cc1cc(Oc2nccc3occc23)ccc1-c1c(C)nn(C)c(=O)c1C` [Example 159, 5-[4-(furo[3,2-c]pyridin-4-yloxy)-2-methylphenyl]-2,4,6-trimethylpyridazin-3(2H)-one], for which, at D1 [1], the response was half-maximal at 212 nM (EC50). For the same compound, at D1 [2], the Ki was found to be 11.6 nM.
As for `Cc1cc(Oc2nccc3occc23)ccc1-c1ccc(N)nc1C` [Example 56, 5-[4-(furo[3,2-c]pyridin-4-yloxy)-2-methylphenyl]-6-methylpyridin-2-amine], the EC50 on D1 [1] was 633 nM and 435 nM. Further, the Ki at D1 [2] turned out to be 98.7 nM.
With `Cc1nccnc1-c1ccc(Oc2nccc3occc23)cc1OCc1c(C)noc1C` [Example 66, 4-{3-[(3,5-dimethyl-1,2-oxazol-4-yl)methoxy]-4-(3-methylpyrazin-2-yl)phenoxy}furo[3,2-c]pyridine, formate salt], the midpoint of the response at D1 [1], the EC50, lay at 737 nM. The compound further had a Ki on D1 [2] of 85.4 nM.
On to `Clc1cc(Oc2nccc3occc23)ccc1-c1cncc2nccn12` [Example 170, 5-[2-chloro-4-(furo[3,2-c]pyridin-4-yloxy)phenyl]imidazo[1,2-a]pyrazine], for which, at D1 [1], the response was half-maximal at 657 nM (EC50). The same compound came in with a Ki on D1 [2] of 30 nM.
At D1 [1], `Cc1cc(Oc2nccc3occc23)ccc1-c1c(C)cnnc1C` (single isomer, unassigned) [Example 14, H-4-[4-(3,5-Dimethylpyridazin-4-yl)-3-methylphenoxy]furo[3,2-c]pyridine] returned a concentration for a half-maximal effect (EC50) of 1040 nM. In addition, on D1 [2], the Ki was 212 nM.
Consider `Cc1ncnc(C)c1-c1ccc(Oc2nccc3occc23)cc1OCc1nc(C2CC2)no1` [Example 108, 4-{3-[(3-cyclopropyl-1,2,4-oxadiazol-5-yl)methoxy]-4-(4,6-dimethylpyrimidin-5-yl)phenoxy}furo[3,2-c]pyridine], for which the midpoint of the response at D1 [1], the EC50, lay at 673 nM. Further, on D1 [2], the Ki came out at 55.5 nM.
For the compound `Cc1ncc(N)nc1-c1ccc(Oc2nccc3occc23)cc1C(F)(F)F` [Example 91, 6-[4-(furo[3,2-c]pyridin-4-yloxy)-2-(trifluoromethyl)phenyl]-5-methylpyrazin-2-amine], at D1 [1], it took 580 nM to reach a half-maximal effect (EC50). The compound further returned a Ki on D1 [2] of 61.2 nM.
`Cc1cc(Oc2nccc3occc23)ccc1-c1c(C)cnnc1N(C)C` [Example 151, 4-[4-(furo[3,2-c]pyridin-4-yloxy)-2-methylphenyl]-N,N,5-trimethylpyridazin-3-amine, trifluoroacetate salt] gave an EC50 on D1 [1] of 1120 nM. The Ki on D1 [2] was determined as 101 nM.
For `Cc1cc(Oc2nccc3occc23)ccc1-c1cncc2nccn12` [Example 36, 5-[4-(furo[3,2-c]pyridin-4-yloxy)-2-methylphenyl]imidazo[1,2-a]pyrazine], the EC50 on D1 [1] is 378 nM and 412 nM. In addition, the Ki on D1 [2] was 120 nM.
The compound `Cc1cc(Oc2nccc3occc23)ccc1-c1cn[nH]c(=O)c1C` [Example 125, 5-[4-(furo[3,2-c]pyridin-4-yloxy)-2-methylphenyl]-4-methylpyridazin-3(2H)-one] registered a half-maximal effective concentration (EC50) at D1 [1] of 91.7 nM. This compound also had a Ki on D1 [2] of 23 nM.
Regarding `Cc1nc(O)nc(C)c1-c1ccc(Oc2nccc3occc23)cc1` [Example 79, 5-[4-(furo[3,2-c]pyridin-4-yloxy)phenyl]-4,6-dimethylpyrimidin-2-ol], the EC50 on D1 [1] was 2550 nM and 1680 nM. At D1 [2], this compound came in with a Ki of 140 nM.
In turn, `Cc1noc(C)c1COc1cc(Oc2nccc3occc23)ccc1-c1cccc2nccn12` [Example 186, 4-{3-[(3,5-dimethyl-1,2-oxazol-4-yl)methoxy]-4-(imidazo[1,2-a]pyridin-5-yl)phenoxy}furo[3,2-c]pyridine, trifluoroacetate salt] gave an EC50 on D1 [1] of 1020 nM. For the same compound, the Ki at D1 [2] worked out at 64.6 nM.
`Cc1cc(Oc2nccc3occc23)ccc1-c1cccnc1C1CC1` [Example 88, 4-[4-(2-cyclopropylpyridin-3-yl)-3-methylphenoxy]furo[3,2-c]pyridine]: the EC50 on D1 [1] is 710 nM and 1520 nM. In addition, the affinity at D1 [2] corresponds to a Ki of 117 nM.
Turning to `Cc1nc2cnccc2n1-c1ccc(Oc2nccc3occc23)cc1` [Example 31, 1-[4-(furo[3,2-c]pyridin-4-yloxy)phenyl]-2-methyl-1H-imidazo[4,5-c]pyridine], the EC50 on D1 [1] is 1030 nM and 1190 nM. Moreover, at D1 [2], the Ki came to 316 nM.
For the compound `Cc1ncc2nccn2c1-c1ccc(Oc2nccc3occc23)cc1F` [Example 65, 5-[2-fluoro-4-(furo[3,2-c]pyridin-4-yloxy)phenyl]-6-methylimidazo[1,2-a]pyrazine], on D1 [1], the EC50 was 193 nM and 300 nM. For the same compound, at D1 [2], the inhibition constant Ki amounted to 61.1 nM.
`Cc1ncnc(C)c1-c1ccc(Oc2nccc3occc23)c2cn(C)nc12` [Example 144, 4-{[7-(4,6-dimethylpyrimidin-5-yl)-2-methyl-2H-indazol-4-yl]oxy}furo[3,2-c]pyridine] showed an EC50 at D1 [1] of 3490 nM. The compound also registered a Ki on D1 [2] of 246 nM.
`Cc1cc(Oc2nccc3occc23)ccc1-c1c(C)cncc1C` [Example 104, 4-[4-(3,5-dimethylpyridin-4-yl)-3-methylphenoxy]furo[3,2-c]pyridine] came in with an EC50 at D1 [1] of 502 nM. For the same compound, the Ki at D1 [2] came to 24.1 nM.
Turning to `Cc1cc(Oc2nccc3occc23)ccc1-c1c(C)nc(O)c2nccn12` (single isomer, unassigned) [Example 106, 5-[4-(furo[3,2-c]pyridin-4-yloxy)-2-methylphenyl]-6-methylimidazo[1,2-a]pyrazin-8-ol], on D1 [1], the midpoint of the response, the EC50, lay at 1310 nM. At D1 [2], the Ki was determined as 106 nM.
For the compound `COc1ncnc(C)c1-c1ccc(Oc2nccc3occc23)cc1C` [Example 206, 4-[4-(4-methoxy-6-methylpyrimidin-5-yl)-3-methylphenoxy]furo[3,2-c]pyridine], the EC50 on D1 [1] was 768 nM and 1250 nM. Also, the Ki at D1 [2] was found to be 160 nM.
For `Cc1n[nH]c(=O)c(C)c1-c1ccc(Oc2nccc3occ(Br)c23)cc1` [Example 211, 5-{4-[(3-bromofuro[3,2-c]pyridin-4-yl)oxy]phenyl}-4,6-dimethylpyridazin-3(2H)-one], the EC50 at D1 [1] was found to be 98 nM. Further, the Ki on D1 [2] was found to be 6.86 nM.
Turning to `Cc1nccnc1-c1ccc(Oc2nccc3occc23)cc1OCc1nc(C2CC2)no1` [Example 188, 4-{3-[(3-cyclopropyl-1,2,4-oxadiazol-5-yl)methoxy]-4-(3-methylpyrazin-2-yl)phenoxy}furo[3,2-c]pyridine, formate salt], the 50% effective concentration (EC50) on D1 [1] was 464 nM and 447 nM. On D1 [2], the affinity, expressed as Ki, was 72.5 nM.
On to `Cc1cc(Oc2nccc3occ(C)c23)ccc1-c1c(C)ncnc1C` [Example 22, 4-[4-(4,6-Dimethylpyrimidin-5-yl)-3-methylphenoxy]-3-methylfuro[3,2-c]pyridine], for which the EC50 at D1 [1] is 774 nM and 1340 nM. The Ki at D1 [2] amounted to 162 nM.
For `Cc1cc(Oc2nccc3occc23)ccc1-c1cccc2[nH]c(=O)ccc12` [Example 59, 5-[4-(furo[3,2-c]pyridin-4-yloxy)-2-methylphenyl]quinolin-2(1H)-one], the EC50 on D1 [1] was 1010 nM and 1150 nM. This compound had a Ki at D1 [2] of 103 nM.
With `Cc1cc(Oc2nccc3occc23)ccc1-c1c(C)c(O)nc2nccn12` [Example 133, 5-[4-(furo[3,2-c]pyridin-4-yloxy)-2-methylphenyl]-6-methylimidazo[1,2-a]pyrimidin-7-ol], a half-maximal response on D1 [1] (EC50) required 172 nM. Besides, on D1 [2], the Ki was 31.5 nM.
Take `Cc1cc(Oc2nccc3occc23)ccc1-c1c(C)ncnc1N1CCC(F)C1` (stereo not drawn) [Example 98, 4-{4-[4-(3-fluoropyrrolidin-1-yl)-6-methylpyrimidin-5-yl]-3-methylphenoxy}furo[3,2-c]pyridine, trifluoroacetate salt]: the response on D1 [1] was half-maximal at 956 nM (EC50). This compound came in with a Ki on D1 [2] of 28.6 nM.
Compound `COc1cc(Oc2nccc3occc23)ccc1-c1cccc2nccn12` [Example 34, 4-[4-(imidazo[1,2-a]pyridin-5-yl)-3-methoxyphenoxy]furo[3,2-c]pyridine] displayed an EC50 on D1 [1] of 182 nM. The Ki at D1 [2] was 20 nM.
Compound `CC(C)NC(=O)COc1cc(Oc2nccc3occc23)ccc1-c1cccc2nccn12` [Example 201, 2-[5-(furo[3,2-c]pyridin-4-yloxy)-2-(imidazo[1,2-a]pyridin-5-yl)phenoxy]-N-(propan-2-yl)acetamide, trifluoroacetate salt] registered an EC50 at D1 [1] of 889 nM. For the same compound, the affinity on D1 [2] corresponds to a Ki of 113 nM.
At D1 [1], `Cc1cc(Nc2nccc3occc23)ccc1-c1cccc2nccn12` [Example 17, N-[4-(Imidazo[1,2-a]pyridin-5-yl)-3-methylphenyl]furo[3,2-c]pyridin-4-amine] displayed an EC50 of 957 nM. The Ki on D1 [2] was found to be 111 nM.
For `Cc1cc(Oc2nccc3occc23)ccc1-c1c(C)ncnc1N1CCCC1` [Example 178, 4-{3-methyl-4-[4-methyl-6-(pyrrolidin-1-yl)pyrimidin-5-yl]phenoxy}furo[3,2-c]pyridine, trifluoroacetate salt], at D1 [1], a half-maximal response (EC50) required 1160 nM. The Ki on D1 [2] is 46.4 nM.
The matching figures for `COc1cnnc(C)c1-c1ccc(Oc2nccc3occc23)cc1C` (single isomer, unassigned) [Example 135, 4-[4-(5-methoxy-3-methylpyridazin-4-yl)-3-methylphenoxy]furo[3,2-c]pyridine]: 276 nM and 38.7 nM.
In the case of `Cn1cncc1CNc1cc(Oc2nccc3occc23)ccc1-c1cccc2nccn12` [Example 48, 5-(furo[3,2-c]pyridin-4-yloxy)-2-(imidazo[1,2-a]pyridin-5-yl)-N-[(1-methyl-1H-imidazol-5-yl)methyl]aniline, trifluoroacetate salt], the midpoint of the response at D1 [1], the EC50, lay at 2070 nM. The compound further registered a Ki on D1 [2] of 68.8 nM.

The values above are taken from patent publication US20150291625A1 (PFIZER INC., priority 2012, published 2015).
